Source: patent US11319565B2, “Method for preparing lipoamino acids based on deep eutectic solvents” (Jiangnan University, priority 2019, dated 2022)

Columns and labels:
[1] = Substrate solubility in natural deep eutectic solvent (polarizing microscope); assay type: physicochemical; settings: in natural deep eutectic solvent C-Gly (choline chloride-glycerin), 60° C., 200 rpm
Experimental: 10 g of natural deep eutectic solvent (C-Gly) was accurately weighed and placed in a thermostatic shaking water bath at 60° C. After the temperature was constant, 10 mg of lauric acid was weighed and added thereto, and the mixture was shaken at 200 rpm for 30 min. Then a drop was taken out by a capillary and detected under a polarizing microscope. […] The final substrate solubility was calculated according to the following formula: S=mt×10/1000 (1).
Herein, S is the solubility and mt is the total addition amount of substrate.

[2] = CMC value determined by conductivity method; assay type: physicochemical; settings: aqueous solution
Experimental: The CMC value is determined by a conductivity method: The relationship between the conductivity of an ionic surfactant aqueous solution and the concentration is used to draw a ∧m-C^1/2 curve, and the CMC value is derived from the turning point of the curve.
∧m=K/C. The unit of ∧m is S·m^2/mol, and the unit of C is mol/L.
For a strong electrolyte, if the temperature is constant, the molar conductivity ∧m of the strong electrolyte solution has a linear relationship with the concentration of the solution c^1/2 in an extremely low concentration range. For a colloidal electrolyte, the conductivity and molar conductivity of a dilute solution change in the same way as the strong electrolyte.

Row | Compound | solubility [1] [g/100 g] | CMC value [2] [mol/L]
1 | CCCCCCCCCCCC(=O)O [lauric acid] | 24.98 | 
2 | CCCCCCCCCCCC(=O)NCC(=O)O [lauroyl glycine] |  | 0.0044
3 | Gemini lauroyl lysine [Gemini lauroyl amino acid] |  | 0.0044
